Laboratory results: patent US10551389B2, “Target binding molecules identified by kinetic target-guided synthesis” (UNIVERSITY OF SOUTH FLORIDA, priority 2013, dated 2020)

Assays:
Bcl-XL = Bcl-XL (Homo sapiens, UniProt Q07817); test: Inhibition of Bcl-XL (disruption of Bcl-XL/Bim interaction); format: binding; details: for % Inhibition (25 μM) Bcl-XL / inhibition at 25 µM: compound at 25 μM; for % Inhibition (50 μM) Bcl-XL / inhibition at 50 µM: compound at 50 μM
Protocol: (§1) In a subsequent study, a structurally diverse library of forty five thio acids and thirty eight sulfonyl azides (identified above) was screened in parallel against Mcl-1 and Bcl-XL using the above mentioned approach. Several potential hit combinations were identified (Table 3). All of these kinetic TGS hit compounds were synthesized (identified above and in Table 3). All the reactions were performed at 20-30 mg scale. The 9-fluorenylmethyl thioester was placed in a 2.0 mL vial and 3.5% DBU/dry DMF solution was added (per 1 μmol of thioester, 4.7 μL, of 3.5% DBU/dry DMF solution was added) and the reaction was stirred for one minute. Then the sulfonylazide (1 eq to thioester) was added to the reaction mixture and immediately bubbling was observed. After the reaction was completed (approximately one minute, monitored by LC-MS) water (200 μL) was added and the pH was adjusted to 7.0 using 1M HCl solution. The reaction mixture was extracted with DCM until there is no product in the aqueous layer (checked by TLC or LC-MS). The product was purified by flash chromatography. Testing of these acylsulfonamides has shown that the hit compounds disrupt the Bcl-XL/Bim or Mcl-1/Bim interaction (Table 3).

Mcl-1 = Mcl-1 (Homo sapiens, UniProt Q07820); test: Inhibition of Mcl-1 (disruption of Mcl-1/Bim interaction); format: binding; details: for % Inhibition (25 μM) Mcl-1 / inhibition at 25 µM: compound at 25 μM; for % Inhibition (50 μM) Mcl-1 / inhibition at 50 µM: compound at 50 μM
Protocol: as §1

Mcl-1, sequence (Q07820 whole entry, species assumed): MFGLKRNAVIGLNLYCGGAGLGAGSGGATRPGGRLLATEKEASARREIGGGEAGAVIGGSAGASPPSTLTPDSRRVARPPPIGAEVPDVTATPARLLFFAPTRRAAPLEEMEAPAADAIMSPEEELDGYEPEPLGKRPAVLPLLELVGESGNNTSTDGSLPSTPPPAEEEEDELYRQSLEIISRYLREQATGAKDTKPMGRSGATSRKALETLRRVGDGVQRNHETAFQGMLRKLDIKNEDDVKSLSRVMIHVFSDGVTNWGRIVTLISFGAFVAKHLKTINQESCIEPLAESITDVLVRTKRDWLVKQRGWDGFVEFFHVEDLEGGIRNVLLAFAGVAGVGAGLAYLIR
Bcl-XL, sequence (Q07817 whole entry, species assumed): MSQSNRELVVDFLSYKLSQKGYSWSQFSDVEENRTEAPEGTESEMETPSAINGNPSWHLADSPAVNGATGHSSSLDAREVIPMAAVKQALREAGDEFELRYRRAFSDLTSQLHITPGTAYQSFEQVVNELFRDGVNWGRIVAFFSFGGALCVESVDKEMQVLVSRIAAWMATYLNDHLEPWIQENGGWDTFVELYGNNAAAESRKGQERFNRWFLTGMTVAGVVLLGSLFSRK

| Structure (SMILES) | % Inhibition (25 μM) Bcl-XL (Bcl-XL) [%] | % Inhibition (50 μM) Bcl-XL (Bcl-XL) [%] | % Inhibition (25 μM) Mcl-1 (Mcl-1) [%] | % Inhibition (50 μM) Mcl-1 (Mcl-1) [%] | inhibition at 25 µM (Bcl-XL) [%] | inhibition at 50 µM (Bcl-XL) [%] | inhibition at 25 µM (Mcl-1) [%] | inhibition at 50 µM (Mcl-1) [%] | IC50 (Mcl-1) [µM] | IC50 (Bcl-XL) [µM] |
| --- | --- | --- | --- | --- | --- | --- | --- | --- | --- | --- |
| [N-]=[N+]=NS(=O)(=O)c1ccc(CN(CCSc2ccccc2)Cc2ccc(S(=O)(=O)NC(=O)c3ccc(-c4ccc(F)cc4)cc3)cc2)cc1 [SZ9TA14] | 8.4 | 7.0 | 30 | 42.5 | – | – | – | – | – | – |
| [N-]=[N+]=NS(=O)(=O)c1ccc(CN(CCSc2ccccc2)Cc2ccc(S(=O)(=O)NC(=O)CCCN3C(=O)C(c4ccc(F)cc4F)=C(c4ccc(F)cc4F)C3=O)cc2)cc1 [SZ9TA20] | – | – | – | – | < 2 | < 2 | 15.7 | 6.9 | – | – |
| COc1ccc(Cc2ccc(C(=O)NS(=O)(=O)c3ccc(CN(CCSc4ccccc4)Cc4ccc5c(c4)OCO5)cc3)cc2)c(OC)c1OC [SZ31TA24] | – | – | – | – | 8.2 | 15.5 | 59.9 | – | 20 | – |
| NS(=O)(=O)c1ccc(CN(CCSc2ccccc2)Cc2ccc(S(=O)(=O)NC(=O)c3cccc(NCCc4ccccc4)c3)cc2)cc1 [SZ10TA44] | 9.9 | 20.6 | 27.6 | 63.4 | – | – | – | – | – | – |
| COc1cccc(CN(CCSc2ccccc2)Cc2ccc(S(=O)(=O)NC(=O)c3sc(-c4ccccc4)nc3C)cc2)c1 [SZ17TA3] | – | – | – | – | – | 39.6 | – | 100 | 8.6 | – |
| CN(C)C(=O)c1cccc(-c2ccc(S(=O)(=O)NC(=O)c3ccc(CN4C(=O)C(c5ccc(F)cc5F)=C(c5ccc(F)cc5F)C4=O)cc3)cc2)c1 [SZ34TA42] | – | – | – | – | 19.1 | 58 | 49 | > 99 | 29.3 | – |
| O=C(NS(=O)(=O)c1ccc(CN(CCSc2ccccc2)Cc2c(F)cccc2Cl)cc1)c1ccc(CCc2ccccn2)cc1 [SZ15TA17] | – | – | – | – | 43.4 | 60 | 79.6 | – | 20.2 | – |
| O=C(NS(=O)(=O)c1ccc(CN2CCN(c3ccccc3)CC2)cc1)c1ccc2c(ccn2Cc2ccc(C(F)(F)F)cc2C(F)(F)F)c1 [SZ1TA30] | <2.0 | <2.0 | 11.8 | 2.6 | – | – | – | – | – | – |
| O=C(NS(=O)(=O)c1ccc(CN(CCSc2ccccc2)Cc2c(F)cccc2Cl)cc1)c1ccc(-c2ccc(F)cc2)cc1 [SZ15TA14] | 31.1 | 23.2 | 65.8 | 58.8 | – | – | – | – | – | – |
| Cn1cc(C(=O)C2CCCCC2)c2cc(C(=O)NS(=O)(=O)c3ccc(-c4ccc(C(C)(C)C)cc4)cc3)ccc21 [SZ11TA40] | – | – | – | – | 30.7 | 58.7 | 74 | > 99 | 21.9 | – |
| [N-]=[N+]=NS(=O)(=O)c1ccc(CN(CCSc2ccccc2)Cc2ccc(S(=O)(=O)NC(=O)c3ccccc3)cc2)cc1 [SZ9TA1] | – | – | – | – | – | 79.5 | – | – | 19.8 | – |
| COc1cccc(CN(CCSc2ccccc2)Cc2ccc(S(=O)(=O)NC(=O)Cn3c4ccccc4c4ccccc43)cc2)c1 [SZ17TA15] | – | – | – | – | 3 | 12 | 53.3 | – | – | – |
| O=C(NS(=O)(=O)c1ccc(CN(CCSc2ccccc2)Cc2c(F)cccc2Cl)cc1)c1ccc(-c2ccccn2)cc1 [SZ15TA25] | – | – | – | – | 43 | 57.8 | 77.2 | – | 15.3 | – |
| Cc1noc(C)c1-c1ccc(S(=O)(=O)NC(=O)c2ccc(CN3C(=O)C(c4ccc(F)cc4F)=C(c4ccc(F)cc4F)C3=O)cc2)cc1 [SZ32TA42] | – | – | – | – | 26 | 59.4 | 72.2 | – | 19.1 | – |
| O=C(NS(=O)(=O)c1ccc(-c2cc3ccccc3s2)cc1)c1ccc(CN2C(=O)C(c3ccc(F)cc3F)=C(c3ccc(F)cc3F)C2=O)cc1 [SZ37TA42] | 21.8 | <2.0 | <2.0 | 22.7 | – | – | – | – | – | – |
| O=C(NS(=O)(=O)c1ccc(-c2ccc(C(F)(F)F)cc2)cc1)c1cccc(NCCc2ccccc2)c1 [SZ16TA44] | – | – | – | – | 26.8 | 55.5 | 49.9 | – | 31.5 | – |
| [N-]=[N+]=NS(=O)(=O)c1ccc(CN(CCSc2ccccc2)Cc2ccc(S(=O)(=O)NC(=O)c3ccc(CCc4ccccn4)cc3)cc2)cc1 [SZ9TA17] | – | – | – | – | 50 | 63.5 | 69.3 | 103 | 20.4 | – |

| Structure (SMILES) | % Inhibition (25 μM) Bcl-XL (Bcl-XL) [%] | % Inhibition (50 μM) Bcl-XL (Bcl-XL) [%] | % Inhibition (25 μM) Mcl-1 (Mcl-1) [%] | % Inhibition (50 μM) Mcl-1 (Mcl-1) [%] | inhibition at 25 µM (Bcl-XL) [%] | inhibition at 50 µM (Bcl-XL) [%] | inhibition at 25 µM (Mcl-1) [%] | inhibition at 50 µM (Mcl-1) [%] | IC50 (Mcl-1) [µM] | IC50 (Bcl-XL) [µM] |
| --- | --- | --- | --- | --- | --- | --- | --- | --- | --- | --- |
| Cn1cc(C(=O)C2CCCCC2)c2cc(C(=O)NS(=O)(=O)c3ccc(CN(CCSc4ccccc4)Cc4ccc(S(N)(=O)=O)cc4)cc3)ccc21 [SZ10TA40] | <2.0 | <2.0 | 37.2 | 35.2 | – | – | – | – | – | – |
| O=C(NS(=O)(=O)c1ccc(CN(CCSc2ccccc2)Cc2ccc3c(c2)OCO3)cc1)c1ccc(OC(F)(F)F)cc1 [SZ31TA8] | – | – | – | – | 9.5 | – | 61.2 | > 99 | 5.9 | – |
| COc1cc2c(cc1OC)C(c1ccccc1)N(Cc1ccc(S(=O)(=O)NC(=O)c3ccc(C(c4c[nH]c5ccccc45)c4c[nH]c5ccccc45)cc3)cc1)CC2 (stereo not drawn) [SZ8TA31] | <2.0 | <2.0 | <2.0 | <2.0 | – | – | – | – | – | – |
| CC1(C)CCN(c2ccc(C(=O)NS(=O)(=O)c3ccc(CN(CCSc4ccccc4)Cc4ccc(S(N)(=O)=O)cc4)cc3)cc2)CC1 [SZ10TA2] | – | – | – | – | – | 52.1 | 41.7 | 94.7 | 15.8 | 44 |
| COc1cccc(CN(CCSc2ccccc2)Cc2ccc(S(=O)(=O)NC(=O)c3ccc(-c4ccc(F)cc4)cc3)cc2)c1 [SZ17TA14] | 16.6 | 2.8 | 73.9 | 46.7 | – | – | – | – | – | – |
| COc1cc2c(cc1OC)C(c1ccccc1)N(Cc1ccc(S(=O)(=O)NC(=O)c3ccc(-c4ccc(F)cc4)cc3)cc1)CC2 (stereo not drawn) [SZ8TA14] | – | – | – | – | 14.4 | 13.9 | 35.2 | 58.3 | – | – |
| NS(=O)(=O)c1ccc(CN(CCSc2ccccc2)Cc2ccc(S(=O)(=O)NC(=O)Cn3c4ccccc4c4ccccc43)cc2)cc1 [SZ10TA15] | 9.4 | <2.0 | 35.2 | 37.4 | – | – | – | – | – | – |
| O=C(NS(=O)(=O)c1ccc(CN(CCSc2ccccc2)Cc2ccc3c(c2)OCO3)cc1)c1ccc(CCc2ccccn2)cc1 [SZ31TA17] | – | – | – | – | 40.2 | 77.7 | 84.3 | 88.6 | 16.8 | 31.3 |
| O=C(NS(=O)(=O)c1ccc(CN2CCN(c3ccccc3)CC2)cc1)c1ccc(-c2ccc(F)cc2)cc1 [SZ1TA14] | 9.6 | <2.0 | 9.0 | 24.4 | – | – | – | – | – | – |
| Cc1nc(-c2ccccc2)sc1C(=O)NS(=O)(=O)c1ccc(CN(CCSc2ccccc2)Cc2ccc3c(c2)OCO3)cc1 [SZ31TA3] | – | – | – | – | 29.6 | 51.3 | 69.9 | 100 | 9.4 | – |
| O=C(Cn1c2ccccc2c2ccccc21)NS(=O)(=O)c1ccc(CN(CCSc2ccccc2)Cc2c(F)cccc2Cl)cc1 [SZ15TA15] | 10.1 | 8.8 | 42.2 | 53.6 | – | – | – | – | – | – |
| NS(=O)(=O)c1ccc(CN(CCSc2ccccc2)Cc2ccc(S(=O)(=O)NC(=O)c3ccc(-c4ccccn4)cc3)cc2)cc1 [SZ10TA25] | 33.9 | 53.4 | 43.9 | 93.6 | – | – | – | – | – | – |
| O=C(NS(=O)(=O)c1ccc(CN(CCSc2ccccc2)Cc2ccc3c(c2)OCO3)cc1)c1ccc(-c2ccc(F)cc2)cc1 [SZ31TA14] | 17.3 | 13.3 | 56.2 | 59.5 | – | – | – | – | – | – |
| Cn1cc(C(=O)c2cccs2)c2cc(C(=O)NS(=O)(=O)c3ccc(CN(CCSc4ccccc4)Cc4ccc5c(c4)OCO5)cc3)ccc21 [SZ31TA45] | 7.2 | <2.0 | 53.8 | 40.2 | – | – | – | – | – | – |
| Cn1cc(C(=O)C2CCCCC2)c2cc(C(=O)NS(=O)(=O)c3ccc(CN(CCSc4ccccc4)Cc4ccc5c(c4)OCO5)cc3)ccc21 [SZ31TA40] | <2.0 | <2.0 | <2.0 | <2.0 | – | – | – | – | – | – |
| O=C(NS(=O)(=O)c1ccc(CN(CCSc2ccccc2)Cc2ccc3c(c2)OCO3)cc1)c1ccc2c(ccn2Cc2ccc(C(F)(F)F)cc2C(F)(F)F)c1 [SZ31TA30] | <2.0 | <2.0 | 32.4 | 30.6 | – | – | – | – | – | – |
